Common to all, as to assay: DTP human tumour cell line panel, 48 h
In assay [1] the test system is OVCAR-4 ovarian.
Assay [2] has as its system HOP-62 NSCLC.
In assay [3] the test system is IGROV1 ovarian.
Assay [4] relates to UACC-257 melanoma.
Assay [5] deals with UACC-62 melanoma.
Assay [6] deals with NCI-H226 lung.
In assay [7] the test system is SNB-19 CNS.
Assay [8] has as its system COLO 205 colon.
Assay [9] relates to KM12 colon.
Assay [10] concerns EKVX NSCLC.

19 molecules from PubChem BioAssay (NCI) can be followed below.

Each structure is given as a SMILES string.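 Interpolation was linear, between the two tested concentrations surrounding the appropriate level; five concentrations were tested over 48 hours in 96-well plates. The concentration for 50% growth inhibition is given as GI50. TGI is the concentration that stops growth completely.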

As for `COc1cc2ncn(-c3cc(OCc4cccs4)c(C(N)=O)s3)c2cc1OC`, the GI50 in assay [1] was 7.97 µM; in [2], 1.53 µM; in [3], 2.75 µM; in assay [4], 3.15 µM; in [5] it was 1.33 µM; in assay [6], 7.13 µM. In addition, the GI50 in [7] was 3.25 µM; in assay [8], 1110 nM; in assay [9] it was 0.772 µM; in assay [10] it was 7.93 µM. For the same molecule, the total growth inhibition concentration (TGI) in assay [1] was > 25 µM; in assay [2], > 25 µM; in assay [3], > 25 µM; in assay [4] it was > 25 µM; in assay [5] it was > 16.8 µM; in [6] it was > 25 µM. Moreover, the concentration for total growth inhibition (TGI) in [7] is > 25 µM; in assay [8], > 13.9 µM; in assay [9] it was > 17.5 µM; in assay [10], > 25 µM.
As to `CC(C)(CO)N1CCN(C(=S)Nc2ccccc2)CC1`, the total growth inhibition concentration (TGI) in [1], in assay [2], in [3], in assay [4], in assay [5] and in [6] was > 100 µM each time. In addition, the TGI in assay [7], in assay [8], in [9] and in assay [10] was > 100 µM throughout.
For the molecule `CCN(CC)C(c1ccc(N(C)C)cc1)C(c1ccc(N(C)C)cc1)N(CC)CC` (stereo not given), the TGI in assay [1], in [2], in assay [3], in assay [4], in assay [5] and in [6] was > 73 µM each time. The TGI in assay [7], in [8], in [9] and in assay [10] was > 73 µM each time.
Turning to `C/C(O)=C(\N=O)C(=O)Nc1ccc(Cl)cc1Cl`, the TGI in assay [1], in assay [2], in assay [3], in assay [4], in [5] and in assay [6] was > 100 µM throughout. Further, the TGI in assay [7], in assay [8], in assay [9] and in assay [10] was > 100 µM throughout.
Take `O=C(O)CCNC1CCCCC1`: the GI50 in assay [1], in [2], in assay [3], in [4], in assay [5] and in assay [6] was > 100 µM each time. The GI50 is > 100 µM in assay [7], > 100000 nM in assay [8], > 100 µM in assay [9] and > 100 µM in [10]. Moreover, the TGI in [1], in assay [2], in [3], in assay [4], in assay [5] and in [6] was > 100 µM in each case. For the same molecule, the TGI in assay [7], in [8], in [9] and in assay [10] was > 100 µM each time.
Take `CC/C=C\C[C@@H](O)C/C=C1/C(=O)C=C[C@H]1C/C=C\CCCC(=O)OC`: the GI50 in [1] was 4.21 µM; in assay [2], 3.31 µM; in assay [3], 3.31 µM; in [4] it was 3.38 µM; in [5] it was 2.8 µM; in assay [6], 2.14 µM. The GI50 in assay [7] is 4.62 µM; in assay [8] it was 1800 nM; in assay [9], 1.65 µM; in assay [10], 9.14 µM. Further, the total growth inhibition concentration (TGI) is 16.9 µM in assay [1]; 9.8 µM in assay [2]; 12.6 µM in [3]; 8.36 µM in assay [4]; 8.6 µM in assay [5]; 5.04 µM in [6]. Moreover, the concentration for total growth inhibition (TGI) was 19.4 µM in [7], 4.66 µM in assay [8], 3.84 µM in assay [9] and 21.1 µM in [10].
As for `O=C(CCc1nnc2sc(-c3ccc(Cl)cc3Cl)nn12)c1nc2ccccc2[nH]1`, the GI50 in assay [1] was 0.639 µM; in [2], 0.577 µM; in assay [3], 0.953 µM; in [4] it was 1.83 µM; in assay [5], 1.19 µM; in [6] it was 0.663 µM. The GI50 in assay [7] is 1.41 µM; in assay [8], 1090 nM; in assay [9], 1.25 µM; in assay [10], 1.93 µM. Besides, the total growth inhibition concentration (TGI) in assay [1] is 3.55 µM; in assay [2], 2.12 µM; in assay [3], 6.35 µM; in [4] it was 4.31 µM; in [5], 2.62 µM; in assay [6] it was 1.56 µM. The TGI in assay [7] is 5.8 µM; in assay [8], 2.65 µM; in assay [9], 2.86 µM; in assay [10], 5.92 µM.
In the case of `Cn1c2ccccc2c2ccc3c(c21)C(=O)c1ccccc1C3=O`, the TGI is 69.7 µM in assay [1]; 45.5 µM in assay [2]; 31.4 µM in assay [3]; 67.5 µM in assay [4]; 38.3 µM in assay [5]; > 100 µM in assay [6]. The TGI in [7] was > 100 µM; in assay [8], 82 µM; in assay [9], > 100 µM; in assay [10], > 100 µM.
`Nc1nc2c(nnn2C2CC(O)C(CO)O2)c(=O)[nH]1` (stereo not given): the GI50 is 11.5 µM in assay [1]; 7.91 µM in [2]; 9.49 µM in assay [3]; > 48.9 µM in [4]; 3.48 µM in assay [5]; 8.75 µM in assay [6]. In addition, the GI50 in [7] is 34.1 µM; in assay [8], 1890 nM; in assay [9] it was 5.39 µM; in assay [10], 93.5 µM. Moreover, the TGI in assay [1] was > 100 µM; in assay [2], > 93.9 µM; in assay [3] it was > 100 µM; in [4] it was > 100 µM; in assay [5], 36.2 µM; in assay [6], > 100 µM. The TGI is > 100 µM in assay [7], 6.3 µM in [8], > 100 µM in assay [9] and > 100 µM in assay [10].
Turning to `CCOC1Oc2ccc(C)cc2C(=O)/C1=C\Nc1ccc(C(N)=O)cc1` (stereo not given), the GI50 in assay [1] is 99.8 µM; in assay [2], 17.6 µM; in [3], 18.9 µM; in assay [4] it was 25.5 µM; in assay [5], 13.6 µM; in [6] it was 24.3 µM. The GI50 in [7] was 18.4 µM; in assay [8], 8520 nM; in [9] it was 16.6 µM; in [10] it was 25.8 µM. Moreover, the TGI in assay [1] was > 100 µM; in [2], 33.7 µM; in [3], 72.5 µM; in assay [4], 52.3 µM; in assay [5], 30.8 µM; in [6], 50.7 µM. For the same molecule, the TGI was > 100 µM in assay [7], > 100 µM in assay [8], 34.3 µM in [9] and 69 µM in [10].
As for `CNC(=O)C1CCc2nnc(-c3ccccc3)n21` (stereo not given), the concentration for total growth inhibition (TGI) in assay [1], in assay [2], in [3], in assay [4], in assay [5] and in [6] was > 100 µM in each case. Besides, the concentration for total growth inhibition (TGI) in assay [7], in [8], in assay [9] and in assay [10] was > 100 µM throughout.
Regarding `Nc1nc(N(Cc2ccccc2)c2ccccc2)c2cn[nH]c2n1`, the GI50 in assay [1] was 6.37 µM; in assay [2], 3.47 µM; in assay [3] it was 4.16 µM; in assay [4], 9.84 µM; in assay [5], 4.32 µM; in [6], 6.35 µM. In addition, the GI50 in assay [7] is > 100 µM; in [8], 2900 nM; in assay [9], 3.23 µM; in assay [10], 3.57 µM. Besides, the total growth inhibition concentration (TGI) in assay [1], in [2], in [3], in assay [4], in assay [5] and in assay [6] was > 100 µM throughout. Besides, the total growth inhibition concentration (TGI) in assay [7], in assay [8], in [9] and in [10] was > 100 µM in each case.
With `COc1ccc2c(c1)[n+](=O)c(C(=O)C/C(=N/OCCCc1ccccc1)C(=O)NC13CC4CC(CC(C4)C1)C3)c(C)n2[O-]`, the TGI in [1], in assay [2], in assay [3], in assay [4], in [5] and in [6] was > 100 µM in each case. For the same molecule, the TGI in assay [7], in [8], in assay [9] and in [10] was > 100 µM throughout.
As to `O=C(CCc1cc(-c2ccccc2)nc(=S)[nH]1)N(Cc1ccccc1)Cc1ccccc1`, the TGI in assay [1], in assay [2], in assay [3], in assay [4], in assay [5] and in [6] was > 100 µM each time. The concentration for total growth inhibition (TGI) in [7], in assay [8], in [9] and in [10] was > 100 µM in each case.
`O=C1CCC(N2C(=O)c3ccccc3C2=O)C(=O)N1CO` (stereo not given): the GI50 was > 100 µM in assay [1]; > 100 µM in [2]; 52.5 µM in assay [3]; 78.6 µM in assay [4]; 32.6 µM in assay [5]; > 100 µM in assay [6]. The GI50 was > 100 µM in assay [7], > 100000 nM in assay [8], > 100 µM in [9] and > 100 µM in assay [10]. The TGI in assay [1], in assay [2], in assay [3], in [4], in assay [5] and in assay [6] was > 100 µM each time. In addition, the TGI in [7], in assay [8], in [9] and in assay [10] was > 100 µM in each case.
Regarding `COc1ccc2nc3c(C(=O)NCCN(C)C)cccc3nc2c1`, the total growth inhibition concentration (TGI) came to 29.6 µM in assay [1]; 21.4 µM in assay [2]; 93.5 µM in assay [3]; 19.9 µM in assay [4]; 21.2 µM in assay [5]; 38.6 µM in [6]. Further, the TGI was 37.9 µM in assay [7], 22.9 µM in assay [8], > 100 µM in assay [9] and 15.7 µM in assay [10].
With `CC[C@@]1(c2ccccc2)C2=C(CC(C)(C)CC2=O)Nc2[nH]ncc21`, the GI50 in assay [1], in [2], in [3], in assay [4], in [5] and in assay [6] was > 100 µM in each case. The GI50 was > 100 µM in assay [7], > 100000 nM in [8], > 100 µM in assay [9] and > 100 µM in assay [10]. The TGI in assay [1], in assay [2], in assay [3], in assay [4], in assay [5] and in assay [6] was > 100 µM each time. Also, the TGI in assay [7], in assay [8], in [9] and in [10] was > 100 µM in each case.
For the molecule `NC(=O)COC(=O)c1c(Cl)nc2sccn12`, the TGI in assay [1], in [2], in assay [3], in assay [4], in assay [5] and in assay [6] was > 100 µM each time. Moreover, the total growth inhibition concentration (TGI) in assay [7], in assay [8], in assay [9] and in [10] was > 100 µM in each case.
As to `O=C(CCN(C(=O)O)S(=O)(=O)c1ccc(NC(=O)c2ccccc2)cc1)NC1CCCCC1`, the TGI in assay [1], in assay [2], in assay [3], in assay [4], in assay [5] and in assay [6] was > 100 µM in each case. In addition, the TGI in assay [7], in assay [8], in assay [9] and in assay [10] was > 100 µM in each case.

The term GI50 denotes the concentration giving 50% growth inhibition. For orientation: TGI means the concentration at which net growth stops. A lower TGI goes with more potent growth arrest.
